Here are results for three molecules from patent US20050187409A1, “Inhibitors of RNase P proteins as antibacterial compounds” (priority 2003, published 2005).

Data set [1] deals with peripheral blood mononuclear cells (PBMC). Description: Cellular toxicity assay (MTS) on PBMC. In kind it is cell-based, human. Conditions: 24 hours incubation, MTS reagent; read-out: PBMC's TC50. As to the method:
(§1) Compounds of the invention (see Table 6) were assayed for cellular toxicity as follows. Whole blood was drawn from a volunteer, and the red cells were separated from the buffy coat cells by centrifugation over ficoll-paque. The resulting peripheral blood mononuclear cells (PBMC) were collected from the interface and washed extensively with PBS by centrifugation to remove platelets and cellular debris. The cells were then plated in 96-well tissue culture plates at a density of 5×10^5 cells per mL at 200 μL per well. After an hour incubation, the candidate compounds were added at the appropriate concentrations diluted from DMSO stocks into assay buffer (RPMI medium supplemented with 10% FCS). The cells were incubated at 37° C., 100% humidity and 5% CO2 for 24 hours at which time MTS reagent was added per the manufacturer's (Promega) instructions. After 2-3 hours incubation the optical density of the wells was read on a spectrophotometer. […] The data are evaluated using equation 2 as described in Example 17, where bacterial cells are replaced by PBMC cells in the measurements. The data describes the toxicity of these compounds to a representative human cell population (PBMC's).

The target of data set [2] is T1, N. gonorrhoeae RNase P holoenzyme (Neisseria gonorrhoeae, UniProt Q5F4W3).
T1 sequence (Q5F4W3 1-121): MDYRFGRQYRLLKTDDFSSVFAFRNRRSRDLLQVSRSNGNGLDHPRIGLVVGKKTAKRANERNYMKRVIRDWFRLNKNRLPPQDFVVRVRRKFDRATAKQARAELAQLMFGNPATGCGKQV
In words: biochemical. Conditions: 32P-labelled pGln substrate, room temperature; read-out: N. gonorrhoeae Gel assay IC50(μM) (Example 16). As to the method: RNase P Inhibition Polyacrylamide Gel Assay
The substrate, the precursor of tRNA^Gln, (pGln), from Synechocystis (Pascual and Vioque, 1999), was synthesized in vitro from the corresponding cDNA by T7 RNA polymerase in the presence of α^32P-GTP. Each control RNase P reaction of 10 μl contained 50 mM Tris-HCl (pH 7.8), 10 mM MgCl2, 100 mM NH4Cl, 1 mM dithiothreitol, and 0.4-1.0 pmol pGln substrate, radiolabeled to a specific activity of 1000-10,000 cpm/pmol. The reaction mixture, containing 0.1-1 nM holoenzyme, was incubated for 5-60 min at room temperature (18-24° C.), and the reaction was terminated by addition of an equal volume of 40 mM EDTA/8 M urea. The samples were electrophoresed in denaturing 8% polyacrylamide gels. The activity was quantified by exposure of the gel to a phosphorimaging screen. For test reactions that require the addition of compounds, the RNA subunits were pre-incubated with compound for 10 min at room temperature in the presence of buffer, followed by addition of the protein subunit. After a further 10 minutes of incubation, the radiolabeled substrate was added, and the reaction initiated. Products were analyzed as just described. The IC50 was the concentration of compound that was required to inhibit RNase P activity by 50%.

The target in data set [3] is N. gonorrhea RNase P (M1 RNA + C5 protein) (Neisseria gonorrhoeae, UniProt Q5F4W3). Description: Time resolved fluorescence (TRF) RNase P inhibition assay. The data set is classed as biochemical. Conditions: 30 min enzyme reaction, ptGLN substrate; read-out: N. gonorrhoeae TRF IC50(μM) (Example 15). The source says: The ability of compounds of the invention to inhibit RNase P enzymes can be assessed by standard techniques. For example, the cleavage of ptRNA^Gln by the enzyme N. Gonorrhea RNase P, can be monitored in the presence and absence of a candidate compound as described in the Example 15. The progress of the RNase P-mediated cleavage reaction can be assessed by measuring the […] hybridized to the cleaved substrate.
Time Resolved Fluorescence RNase P Inhibition Assay
96-well Nunc MaxiSorp FluoroNunc plates were coated with 50 μl/well of 1 μg/ml of streptavidin in base buffer (150 mM KCl, 5 mM MgCl2, 50 mM Tris, pH 7.6) and incubated overnight. The plates were washed using TRF.96 protocol, and then blocked with 150 μl of a 1 mg/ml BSA solution in base buffer and incubated with shaking for sixty minutes. The plates were then washed twice with base buffer plus 0.01% Tween20. 50 μl of 40 nM T17-bt (biotinylated DNA oligonucleotide complementary to the RNaseP substrate leader sequence used to capture intact RNaseP substrate) was then added to all wells, and the plates were incubated with shaking for 1 hr.
A 0.4 nM solution of N. gonorrhea M1 RNA was made from a 1 μM stock solution. A 0.5 nM solution of N. gonorrhea C5 protein is made by diluting a 10 μM stock. ΔUL-ptGLN UTP-bt (10 μM stock) was diluted into PA buffer for a concentration of 40 nM.
Compounds were serially diluted in DMSO from 20 mM stocks to 6, 2, 0.6, 0.2, and 0.06 mM dilutions. These titrations were then diluted (2 μl to 100) in PA buffer, and 12.5 μl of each concentration was added in duplicate to a 96-well V-bottom polypropylene plate. The highest concentration was put in row G and the lowest in row B. Rows A & H received 12.5 μl of DMSO/PA buffer.
The enzyme reaction was initiated in the V-bottom polypropylene plates containing compound dilutions by adding 12.5 μl of the N. gonorrhea M1 solution to rows A-G. PA buffer was added to row H. 12.5 μl of the C5 solution was added similarly to the M1 solutions. 12.5 μl of the substrate solution was then added to all wells. The plates were incubated for 30 minutes at which time 12.5 μl of stop buffer was added to all wells. (Stop buffer: 500 μg/ml polyC/50 nM SA-Eu in 335 mM MgCl2 PA buffer).
The T17-biotin-coated plate was washed three times, and 37.5 μl of 75 mM MgCl2 PA buffer was added to each well. After 30 minutes incubation with the stop buffer, 12.5 μl from all of the enzyme reaction wells was transferred to the T17 plates. The plates were then incubated for 1.5 hr at room temperature with shaking. The plates were washed three times and 40 μl of Delfia enhancement solution (Wallac Oy) was added to all wells. The plates were then read on the Victor 2 plate reader.

For another data set, the system named is S. pyogenes. Description: Bacterial inhibition assay (growth, OD readout). In kind it is cell-based. Conditions: CAMHB-3% LHB medium, 35° C., 16-20 hours. On the procedure:
(§2) Compounds of the invention (see Table 5) were assayed for their ability to inhibit bacterial growth. Compounds were diluted from 10 mM DMSO stocks to 3 mM and 1 mM in DMSO. The compounds were further diluted from these stocks into saline for 200, 120, and 20 μM stocks. Control antibiotics were diluted similarly. Overnight cultures of bacteria were made in the following manner. N. gonorrhea was streaked onto a chocolate agar plate and incubated at 35° C./5% CO2. Rather than make an overnight culture of S. pyogenes, a loopful of S. pyogenes from a blood plate or a stock plate was used the following day for direct cell suspension.
(§3) On the following day bacteria were prepared by dilution into saline with O.D. […] readings taken to determine the concentration of the bacteria. CFUs (colony forming units) were determined using the formula: CFU/mL=OD625×(1.5×10^8 CFU/mL/OD McFarland std)×dilution. The four bacterial cultures were diluted initially to 5.5×10^7 CFU/mL. The bacteria were then further diluted into medium to 5.5×10^5 CFU/mL for S. pyogenes and 5.5×10^6 CFU/mL for N. gonorrhea. S. pyogenes and N. gonorrhea were grown in CAMHB-3% LHB medium. The bacteria were added one per plate at 200 μL per well. Compounds were added in 10 μL aliquots for final concentrations of 10, 3, and 1 μM in duplicate. Control antibiotics, penicillin for S. pyogenes and ciprofloxacin for N. gonorrhea, were added from 0.8 mg/ml to 0.003 mg/ml. Plates were incubated at 35° C. with O2 for 16-20 hours for S. pyogenes, and read at OD665 in a Victor2 plate reader. Plates were incubated at 35° C. with 5% CO2 for 24 hours for N. gonorrhea at which time 40 μL of MTS reagent is added per well and incubated for 1 hour in same incubator. The plates were read at OD490. Compounds were tested at 1 μM, 3 μM, and 10 μM concentrations. The results, which are expressed as a percentage of the control, were calculated using equation 2. In this equation, O.D. is optical density; (O.D. compounds+bacteria) is the optical density observed for bacteria grown in the presence of a compound of the invention; (O.D. blank) is the optical density in the absence of bacteria; and (O.D. bacteria) is the optical density observed for bacteria growing uninhibited. Other RNase P inhibitors may be tested similarly using any bacteria of interest. [formula]

In a further data set the test system is N. gonorrhoeae. In words: Bacterial inhibition assay (growth, MTS readout). The data set is classed as cell-based. Conditions: CAMHB-3% LHB medium, 35° C., 5% CO2, 24 hours. On the procedure: as §2, §3
Data set [4] in a line: Cellular toxicity assay (MTS) on PBMC. In kind it is cell-based, human. Conditions: human, peripheral blood mononuclear cells (PBMC); 24 hours incubation, MTS reagent; read-out: PBMC's TC50. On the procedure:
as §1

The structures appear in SMILES notation. Converted amounts (≈) assume the structure as drawn.

As for `CC(=NNC(=N)N)c1cccc(NC(=O)[C@H](Cc2ccc(-c3ccccc3)cc2)NC(=O)c2cccc(I)c2)c1` [MES 10908, Guanylhydrazone of (S)-1-(3-iodobenzoyl)-N-(3-acetylphenyl)biphenyl-alaninamide], in data set [1], the CC50 is 5 µM. In addition, the IC50 (commonly the concentration that gives 50% inhibition) in data set [2] was 6 µM; in data set [3], 5 µM. Besides, the MIC (in general, the lowest concentration that inhibits growth of the organism) is reported as 10 µM (≈ 6.45 µg/mL) in the data set on S. pyogenes and greater than 100 µM in the data set with N. gonorrhoeae.

For `CC(=NNC(=N)N)c1cccc(NC(=O)Nc2cccc(C(C)=NNC(=N)N)c2)c1` [MES 10949, Bisguanylhydrazone of N,N-bis(3-acetylphenyl)urea], in data set [4], the CC50 at 24 h was greater than 100 µM. The IC50 came out at 30 µM in data set [2] and 6 µM in data set [3]. The figures for the minimal inhibitory concentration (MIC) with S. pyogenes (Streptococcus pyogenes) and against N. gonorrhoeae (Neisseria gonorrhoeae) were 30 µM (≈ 12.3 µg/mL) and 100 µM (≈ 40.8 µg/mL), respectively.

For the molecule `CC(=NNC(=N)N)c1ccc(NC(=O)Nc2ccc(C(C)=NNC(=N)N)cc2)cc1` [MES 10950, Bisguanylhydrazone of N,N′-bis(4-acetylphenyl)urea], the CC50 at 24 h in data set [4] is greater than 100 µM. Also, the 50% inhibitory concentration (IC50) in data set [2] stood at 7 µM; in data set [3], 6 µM. For the same molecule, the MIC in the data set with S. pyogenes (Streptococcus pyogenes) worked out at 10 µM (≈ 4.08 µg/mL); in the data set with N. gonorrhoeae (Neisseria gonorrhoeae), 30 µM (≈ 12.3 µg/mL).
